The experiment deals with T1, GBA2 (Homo sapiens, UniProt Q9HCG7).
T1 construct: expressed in transfected cells; host or cells: HEK293T (GBA/GBA2 KO background for the fluorogenic assay; endogenous-GBA background with GBA2 and GBA3 overexpressed for ABPP and intact-cell assays)
T1 sequence (Q9HCG7 1-927): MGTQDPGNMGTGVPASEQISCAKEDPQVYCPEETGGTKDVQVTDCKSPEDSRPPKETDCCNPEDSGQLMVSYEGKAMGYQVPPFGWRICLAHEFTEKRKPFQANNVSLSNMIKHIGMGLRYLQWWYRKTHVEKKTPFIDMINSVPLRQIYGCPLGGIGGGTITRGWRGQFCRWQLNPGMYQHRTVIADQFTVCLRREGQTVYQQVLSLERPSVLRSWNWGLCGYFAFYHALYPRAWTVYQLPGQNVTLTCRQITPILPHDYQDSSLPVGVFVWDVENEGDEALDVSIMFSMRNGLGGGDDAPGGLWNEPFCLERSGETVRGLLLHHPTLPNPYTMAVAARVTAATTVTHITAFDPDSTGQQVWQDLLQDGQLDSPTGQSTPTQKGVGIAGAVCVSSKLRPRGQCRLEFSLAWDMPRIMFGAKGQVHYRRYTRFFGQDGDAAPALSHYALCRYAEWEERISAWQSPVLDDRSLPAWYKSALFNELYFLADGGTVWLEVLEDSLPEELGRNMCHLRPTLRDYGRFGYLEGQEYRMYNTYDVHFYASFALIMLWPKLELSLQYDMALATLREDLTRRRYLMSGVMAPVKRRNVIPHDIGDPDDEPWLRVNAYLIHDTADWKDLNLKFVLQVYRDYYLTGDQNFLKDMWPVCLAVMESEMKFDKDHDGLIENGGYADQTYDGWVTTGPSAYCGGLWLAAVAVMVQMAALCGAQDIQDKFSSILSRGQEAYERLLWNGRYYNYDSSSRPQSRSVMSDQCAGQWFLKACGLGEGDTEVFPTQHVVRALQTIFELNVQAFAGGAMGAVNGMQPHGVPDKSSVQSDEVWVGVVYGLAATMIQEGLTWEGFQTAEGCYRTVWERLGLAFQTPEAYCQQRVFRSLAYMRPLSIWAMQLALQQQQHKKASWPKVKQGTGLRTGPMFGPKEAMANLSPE
Kind of experiment: Inhibition in intact HEK293T cells (24 h), read out by cABPP with ABP 10, GBA2. The format is cell-based. The following applies: for IC50: 24 h treatment, cABPP quantification, n=3; for GBA2/GBA ratio, intact cells: IC50 ratio, 24 h. The source says: We next examined the activity of 1 and 2 towards the three human β‐D‐glucosidase in intact HEK293T cells. […] It is noted that the GBA‐selectivity of both compounds is much improved in intact cells than in the in vitro system (Figure 2 and Table 1). This is especially true for compound 1, where an impressive 4‐logs of selectivity window is observed.
Figure 5 Inhibitory effect of β‐D‐xylo‐configured cyclophellitol 1 and cyclophellitol aziridine 2 on β‐glucosidases in intact HEK293T cells expressing GBA, GBA2 and GBA3. (A) Representative gel images of cABPP where cells were treated for 24 h with indicated inhibitor. Lysates were then prepared and labeled with fluorescent ABP 10. Fluorescently labeled proteins were visualized after SDS‐PAGE (1 set from n=3 replicates). (B) IC50 curves determined by cABPP labeling results. (C) Apparent IC50 values towards β‐glucosidases in intact HEK293T cells producing GBA, GBA2 and GBA3 were determined by the fluorescence quantification based on cABPP SDS‐PAGE results.
ABP labeling procedure: Glycosidases were labeled with excess fluorescent ABPs at optimum conditions. ABP labeling was performed at 37 °C for 30 min for all materials (if not otherwise stated), in a total sample volume of 20–40 μL and 0.5–1 % DMSO concentration. GBA was labeled with 200 nM ABP 9 (pH 5.2, 0.1 % (v/v) Triton‐100, 0.2 % (w/v) sodium taurocholate), or labeled together with GBA2 using 200 nM β‐D‐glucose‐configured aziridine ABP 10 at pH 5.8, or labeling together with GBA2 and GBA3 using 200 nM β‐D‐glucose‐configured aziridine ABP 10 at pH 6.0. After ABP incubation, proteins were denatured by boiling the samples with 5× Laemmli buffer (50 % (v/v) 1 M Tris‐HCl, pH 6.8, 50 % (v/v) 100 % glycerol, 10 % (w/v) DTT, 10 % (w/v) SDS, 0.01 % (w/v) bromophenol blue) for 5 min at 98 °C, and separated by electrophoresis on 10 % (w/v) SDS‐PAGE gels running continuously at 90 V. Wet slab‐gels were scanned on fluorescence using the Typhoon FLA 9500 (GE Healthcare) at λEX 473 nm and λEM≥510 nm for green fluorescent ABP 8; and at λEX 635 nm and λEM≥665 nm for ABP 6, 9 and 10. ABP‐emitted fluorescence was quantified using ImageQuant software (GE Healthcare, Chicago, IL, USA) and curve‐fitted using Prism 8.0 (GraphPad Software). After fluorescence scanning, SDS‐PAGE gels were stained for total protein with Coomassie G250 and scanned on a ChemiDoc MP imager (Bio‐Rad, Hercules, CA, USA).[25]
Assessment of inhibitor activity in cultured cells: Confluent HEK293T stably expressing human GBA and GBA2 GBA3 overexpressing were cultured in 24‐well plates in triplicates with(out) inhibitors for 24 h at 37 °C with 7 % CO2. […]

SMILES strings stand for the structures.

This is an account of results in publication PMC8596838, “Xylose‐Configured Cyclophellitols as Selective Inhibitors for Glucocerebrosidase” (Chembiochem, 2021).

Take `O[C@@H]1[C@@H](O)[C@H](O)C[C@H]2O[C@@H]12` [compound 1, xylo‐cyclophellitol]: the IC50 (usually the concentration that gives 50% inhibition) was above 100 µM and the “GBA2/GBA ratio, intact cells” value was above 10000.
As to `O[C@@H]1[C@@H](O)[C@H](O)C[C@H]2N[C@@H]12` [compound 2, β‐D‐xylo‐Cyclophellitol aziridine], half-maximal inhibition (IC50) was put at 10.4 ± 1.53 µM and the “GBA2/GBA ratio, intact cells” value came out at 247.
